Results reported in the NIST ThermoML archive (doi:10.1021/je100017w).

Settings: Liquid

CC[Si](OC)(OC)OC [ethyltrimethoxysilane]
Settings	vapor or sublimation pressure [kPa]
306.35 K	2.325
311.45 K	3.325
315.95 K	4.325
319.8 K	5.325
324.15 K	6.325
328.65 K	8.325
334.15 K	10.32
338.95 K	13.32
343.65 K	16.32
347.65 K	19.32
351.35 K	22.32
354.55 K	25.32
357.45 K	28.32
360.15 K	31.32
362.65 K	34.33
364.95 K	37.33
367.55 K	40.33
369.65 K	43.33
371.05 K	46.33
374.05 K	49.33
375.85 K	52.33
376.45 K	55.33
379.85 K	58.33
381.15 K	61.33
382.55 K	64.33
383.15 K	67.33
384.85 K	70.33
385.85 K	73.33
386.65 K	76.33
387.55 K	79.33
388.95 K	82.33
389.95 K	85.33
390.95 K	88.33
392.95 K	91.33
393.05 K	94.33
393.75 K	97.33
393.95 K	100.33
397.15 K	101.33
